Measured values reported in patent US11952388B2, “Crystal form of tri-cycle compound and application thereof” (FUJIAN AKEYLINK BIOTECHNOLOGY CO., LTD., priority 2018, dated 2024).

Experiment: Pre-stability (solid stability) test of crystal form B, HPLC analysis
Format: physicochemical
Protocol: [table] Note: • X indicates testing items, including: XRPD, content and related substances, day 0 samples were stored at −20° C.; • ICH indicate the illumination condition that guides the placement of the samples, i.e., illumination (total illuminance=1.2×10^6 Lux·hr/near ultraviolet=200 w·hr/m^2, with the lid open). About 10 mg of the crystal form B of the compound represented by formula (I) was weighed and placed at the bottom of a 40 mL glass bottle, and spread into a thin layer. The bottleneck was wrapped with aluminum foil paper (except for illuminated samples), and some small holes were punctured on the aluminum foil paper to ensure that the samples can fully contact the ambient air. The illuminated sample was placed at the bottom of a 40 mL glass bottle, which was placed vertically in the illuminated box with the lid open; the control sample was placed at the bottom of glass vials, which was placed vertically with the lid open, and wrapped with tin foil to protect it from light. Under each condition, 2 aliquots of sample were weighed in parallel at each time point, and an additional appropriate amount of sample (not weighed) was taken for XRPD detection. The prepared samples were placed under various conditions shown in the following Table, and samples were analyzed respectively by HPLC after reaching the time points. 1.1 Preparation of Diluent and Mobile Phase • Diluent: Acetonitrile:Water (2:1) • Example: 1000 mL of acetonitrile and 500 mL of water were mixed evenly, ultrasonically degassed, and cooled to room temperature. • Mobile phase A: 0.1% trifluoroacetic acid aqueous solution • Example: 2.0 mL of trifluoroacetic acid was added to 2 L of water and mixed well, ultrasonically degassed, and cooled to room temperature. • Mobile phase B: 100% acetonitrile The crystal form B of compound represented by formula (I) was used as control. The crystal form B of compound represented by formula (I) was placed in a glass bottle, then 5 mL of diluent was added into the bottle to a concentration of 1 mg/mL, and the solution was mix well ultrasonically. And then the mixture was diluted 5 times to obtain the control sample solution STD1. STD1 was diluted 1, 2, 4, 20 and 200 times to prepare a 1% control solution. Diluent was added to each test sample to a concentration of 10 mL, then the samples were ultrasonically dissolved. HPLC test was performed after cooling to room temperature. Meanwhile, the sample solution was diluted 5 times and mixed well, and then tested by HPLC. [table]

[1] = Illumination of Control (light-proof)

Cc1cc2n(c1)S(=O)(=O)c1ccc(C(=O)NCC[C@H]3COCCO3)cc1NC2=O
Assay (content of the sample) (40° C., 75% humidity, 1 month): 100.6%
TRS (sum of impurities) (40° C., 75% humidity, 1 month): 1.20%
impurity at relative retention time 0.87 (40° C., 75% humidity, 1 month): 0.34%
impurity at relative retention time 1.07 (40° C., 75% humidity, 1 month): 0.07%
impurity at relative retention time 1.12 (40° C., 75% humidity, 1 month): 0.65%
impurity at relative retention time 1.14 (40° C., 75% humidity, 1 month): 0.13%
Assay (content of the sample) (40° C., 75% humidity, 10 days): 100.7%
TRS (sum of impurities) (40° C., 75% humidity, 10 days): 1.19%
impurity at relative retention time 0.87 (40° C., 75% humidity, 10 days): 0.34%
impurity at relative retention time 1.07 (40° C., 75% humidity, 10 days): 0.06%
impurity at relative retention time 1.12 (40° C., 75% humidity, 10 days): 0.65%
impurity at relative retention time 1.14 (40° C., 75% humidity, 10 days): 0.13%
Assay (content of the sample) (60° C., 75% humidity, 1 month): 100.3%
TRS (sum of impurities) (60° C., 75% humidity, 1 month): 1.21%
impurity at relative retention time 0.87 (60° C., 75% humidity, 1 month): 0.35%
impurity at relative retention time 1.07 (60° C., 75% humidity, 1 month): 0.07%
impurity at relative retention time 1.12 (60° C., 75% humidity, 1 month): 0.65%
impurity at relative retention time 1.14 (60° C., 75% humidity, 1 month): 0.13%
Assay (content of the sample) (60° C., 75% humidity, 10 days): 101.4%
TRS (sum of impurities) (60° C., 75% humidity, 10 days): 1.20%
impurity at relative retention time 0.87 (60° C., 75% humidity, 10 days): 0.35%
impurity at relative retention time 1.07 (60° C., 75% humidity, 10 days): 0.07%
impurity at relative retention time 1.12 (60° C., 75% humidity, 10 days): 0.65%
impurity at relative retention time 1.14 (60° C., 75% humidity, 10 days): 0.13%
Assay (content of the sample) (60° C., 5 days): 100.1%
TRS (sum of impurities) (60° C., 5 days): 1.19%
impurity at relative retention time 0.87 (60° C., 5 days): 0.35%
impurity at relative retention time 1.07 (60° C., 5 days): 0.07%
impurity at relative retention time 1.12 (60° C., 5 days): 0.65%
impurity at relative retention time 1.14 (60° C., 5 days): 0.13%
Assay (content of the sample) (60° C., 10 days): 100.1%
TRS (sum of impurities) (60° C., 10 days): 1.21%
impurity at relative retention time 0.87 (60° C., 10 days): 0.36%
impurity at relative retention time 1.07 (60° C., 10 days): 0.07%
impurity at relative retention time 1.12 (60° C., 10 days): 0.65%
impurity at relative retention time 1.14 (60° C., 10 days): 0.13%
Assay (content of the sample) (92.5% humidity, 5 days): 100.0%
TRS (sum of impurities) (92.5% humidity, 5 days): 1.21%
impurity at relative retention time 0.87 (92.5% humidity, 5 days): 0.36%
impurity at relative retention time 1.07 (92.5% humidity, 5 days): 0.07%
impurity at relative retention time 1.12 (92.5% humidity, 5 days): 0.65%
impurity at relative retention time 1.14 (92.5% humidity, 5 days): 0.13%
Assay (content of the sample) (92.5% humidity, 10 days): 100.7%
TRS (sum of impurities) (92.5% humidity, 10 days): 1.20%
impurity at relative retention time 0.87 (92.5% humidity, 10 days): 0.35%
impurity at relative retention time 1.07 (92.5% humidity, 10 days): 0.06%
impurity at relative retention time 1.12 (92.5% humidity, 10 days): 0.65%
impurity at relative retention time 1.14 (92.5% humidity, 10 days): 0.13%
Assay (content of the sample) (Day 0): 100.5%
TRS (sum of impurities) (Day 0): 1.20%
impurity at relative retention time 0.87 (Day 0): 0.35%
impurity at relative retention time 1.07 (Day 0): 0.06%
impurity at relative retention time 1.12 (Day 0): 0.65%
impurity at relative retention time 1.14 (Day 0): 0.14%
Assay (content of the sample) (Illumination (1 ICH, lid open)): 83.5%
TRS (sum of impurities) (Illumination (1 ICH, lid open)): 9.50%
impurity at relative retention time 0.16 (Illumination (1 ICH, lid open)): 0.07%
impurity at relative retention time 0.19 (Illumination (1 ICH, lid open)): 0.32%
impurity at relative retention time 0.24 (Illumination (1 ICH, lid open)): 0.12%
impurity at relative retention time 0.26 (Illumination (1 ICH, lid open)): 0.12%
impurity at relative retention time 0.31 (Illumination (1 ICH, lid open)): 0.12%
impurity at relative retention time 0.36 (Illumination (1 ICH, lid open)): 0.19%
impurity at relative retention time 0.38 (Illumination (1 ICH, lid open)): 0.08%
impurity at relative retention time 0.60 (Illumination (1 ICH, lid open)): 0.28%
impurity at relative retention time 0.62 (Illumination (1 ICH, lid open)): 0.12%
impurity at relative retention time 0.70 (Illumination (1 ICH, lid open)): 0.10%
impurity at relative retention time 0.78 (Illumination (1 ICH, lid open)): 0.16%
impurity at relative retention time 0.79 (Illumination (1 ICH, lid open)): 0.24%
impurity at relative retention time 0.82 (Illumination (1 ICH, lid open)): 2.26%
impurity at relative retention time 0.87 (Illumination (1 ICH, lid open)): 4.49%
impurity at relative retention time 0.89 (Illumination (1 ICH, lid open)): 0.07%
impurity at relative retention time 0.90 (Illumination (1 ICH, lid open)): 0.07%
impurity at relative retention time 1.07 (Illumination (1 ICH, lid open)): <0.05%
impurity at relative retention time 1.12 (Illumination (1 ICH, lid open)): 0.52%
impurity at relative retention time 1.14 (Illumination (1 ICH, lid open)): 0.12%
impurity at relative retention time 1.42 (Illumination (1 ICH, lid open)): 0.06%
Assay (content of the sample) [1]: 100.3%
TRS (sum of impurities) [1]: 1.18%
impurity at relative retention time 0.87 [1]: 0.34%
impurity at relative retention time 1.07 [1]: 0.07%
impurity at relative retention time 1.12 [1]: 0.64%
impurity at relative retention time 1.14 [1]: 0.13%
solid stability (conclusion in words) (high temperature and high humidity conditions): stable under high temperature and high humidity conditions
